Laboratory results as given in patent US8765773B2, “Substituted hydroxamic acids and uses thereof” (Millennium Pharmaceuticals, Inc., priority 2010, dated 2014).

Target: T1, purified human HDAC6 (Homo sapiens, UniProt Q9UBN7)
T1 construct: purchased BPS Bioscience 5006
T1 sequence (Q9UBN7 1-1215): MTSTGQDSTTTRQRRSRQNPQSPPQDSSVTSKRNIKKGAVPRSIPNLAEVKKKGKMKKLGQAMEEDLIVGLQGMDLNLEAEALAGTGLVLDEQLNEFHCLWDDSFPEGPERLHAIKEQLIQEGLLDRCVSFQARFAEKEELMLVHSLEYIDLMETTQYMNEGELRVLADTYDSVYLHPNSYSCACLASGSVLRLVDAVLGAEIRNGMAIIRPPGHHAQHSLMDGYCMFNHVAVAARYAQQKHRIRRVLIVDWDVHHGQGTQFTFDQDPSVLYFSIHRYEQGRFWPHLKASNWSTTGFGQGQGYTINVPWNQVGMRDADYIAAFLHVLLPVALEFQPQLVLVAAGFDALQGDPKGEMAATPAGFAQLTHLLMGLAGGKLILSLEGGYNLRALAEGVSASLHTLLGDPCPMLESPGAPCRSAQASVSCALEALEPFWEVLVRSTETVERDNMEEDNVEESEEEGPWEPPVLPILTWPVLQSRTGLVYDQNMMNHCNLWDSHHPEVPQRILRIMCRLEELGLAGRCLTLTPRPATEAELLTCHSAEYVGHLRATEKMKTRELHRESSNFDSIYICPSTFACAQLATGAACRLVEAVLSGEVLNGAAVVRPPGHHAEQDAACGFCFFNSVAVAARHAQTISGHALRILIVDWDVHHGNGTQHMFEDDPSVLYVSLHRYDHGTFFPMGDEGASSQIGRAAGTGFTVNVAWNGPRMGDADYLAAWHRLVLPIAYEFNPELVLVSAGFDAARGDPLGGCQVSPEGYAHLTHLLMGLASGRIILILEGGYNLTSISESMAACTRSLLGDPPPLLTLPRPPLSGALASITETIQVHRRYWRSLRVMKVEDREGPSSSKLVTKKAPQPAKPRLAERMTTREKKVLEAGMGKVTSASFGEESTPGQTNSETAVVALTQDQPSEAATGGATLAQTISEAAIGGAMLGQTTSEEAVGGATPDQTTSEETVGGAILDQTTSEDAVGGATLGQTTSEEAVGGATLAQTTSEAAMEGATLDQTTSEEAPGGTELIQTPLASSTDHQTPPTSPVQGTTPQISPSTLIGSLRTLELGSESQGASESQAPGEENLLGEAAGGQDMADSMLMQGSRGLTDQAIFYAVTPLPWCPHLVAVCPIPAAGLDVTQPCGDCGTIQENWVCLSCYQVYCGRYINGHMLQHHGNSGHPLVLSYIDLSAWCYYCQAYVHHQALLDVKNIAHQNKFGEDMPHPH
Test: HDAC6 Enzyme Assay
Format: biochemical
Details: compound concentration 0.37 μM, read-out: Percent Inhibition
In short: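 Purified human HDAC6 incubated 1 h at 30° C with Ac-Arg-Gly-Lys(Ac)-AMC peptide plus compound or DMSO; stopped with trichostatin A. Deacetylated product trypsin-digested, released AMC read by fluorescence (Ex 340/Em 460 nm). Percent inhibition at one concentration or IC50 from curves relative to DMSO controls.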

Compound	inhibition at 0.37 µM [%]
O=C(NO)c1ccc2ncn(CCc3cccc(N4CCOCC4)c3)c(=O)c2c1 [Compound I-125, N-hydroxy-3-[2-(3-morpholin-4-ylphenyl)ethyl]-4-oxo-3,4-dihydroquinazoline-6-carboxamide]	88.2
O=C(NO)c1ccc2ncn(Cc3cccc(-c4cccc(C(=O)NC5CC5)c4)c3)c(=O)c2c1 [Compound I-126, 3-({3′-[(cyclopropylamino)carbonyl]biphenyl-3-yl}methyl)-N-hydroxy-4-oxo-3,4-dihydroquinazoline-6-carboxamide]	95.6
CC(C)C(=O)Nc1cccc(Cn2ccc3ccc(C(=O)NO)cc3c2=O)c1 [Compound I-174, N-hydroxy-2-[3-(isobutyrylamino)benzyl]-1-oxo-1,2-dihydroisoquinoline-7-carboxamide]	98.8
CC(C)c1cccc(-c2cccc(CCn3cnc4ccc(C(=O)NO)cc4c3=O)c2)c1 [Compound I-342, N-hydroxy-3-[2-(3′-isopropylbiphenyl-3-yl)ethyl]-4-oxo-3,4-dihydroquinazoline-6-carboxamide]	69.5
O=C(NO)c1ccc2ccn(CCC(c3ccc(Cl)cc3)c3ccc(Cl)cc3)c(=O)c2c1 [Compound I-293, 2-[3,3-bis(4-chlorophenyl)propyl]-N-hydroxy-1-oxo-1,2-dihydroisoquinoline-7-carboxamide]	91.5
O=C(NO)c1ccc2ccn(-c3cccc(Cl)c3)c(=O)c2c1 [Compound I-179, 2-(3-chlorophenyl)-N-hydroxy-1-oxo-1,2-dihydroisoquinoline-7-carboxamide]	97.5
Cc1ccccc1-c1cccc(CCn2cnc3ccc(C(=O)NO)cc3c2=O)c1 [Compound I-296, N-hydroxy-3-[2-(2′-methylbiphenyl-3-yl)ethyl]-4-oxo-3,4-dihydroquinazoline-6-carboxamide]	94.2
O=C(NO)c1ccc2c(=O)[nH]c(-c3cccnc3)nc2c1 [Compound I-398, N-hydroxy-4-oxo-2-pyridin-3-yl-3,4-dihydroquinazoline-7-carboxamide]	79
CC(C)(C)OC(=O)N1CCC(c2cccc(CCn3ccc4ccc(C(=O)NO)cc4c3=O)c2)CC1 [Compound I-317, tert-butyl 4-(3-{2-[7-[(hydroxyamino)carbonyl]-1-oxoisoquinolin-2(1H)-yl]ethyl}phenyl)piperidine-1-carboxylate]	93.2
O=C(NO)c1ccc2ncn(CCC(c3ccccc3)C3CCCCC3)c(=O)c2c1 (centres unmarked) [Compound I-340, 3-(3-cyclohexyl-3-phenylpropyl)-N-hydroxy-4-oxo-3,4-dihydroquinazoline-6-carboxamide]	94.9
CC(C)(C)OC(=O)NCCCn1ccc2ccc(C(=O)NO)cc2c1=O [Compound I-245, tert-butyl {3-[7-[(hydroxyamino)carbonyl]-1-oxoisoquinolin-2(1H)-yl]propyl}carbamate]	94.5
O=C(NO)c1ccc2ccn(CCC3CCNCC3)c(=O)c2c1 [Compound I-343, N-hydroxy-1-oxo-2-(2-piperidin-4-ylethyl)-1,2-dihydroisoquinoline-7-carboxamide]	91.3

Same assay, conditions: compound concentration 0.412 μM, read-out: Percent Inhibition

Compound	inhibition at 0.412 µM [%]
O=C(NO)c1ccc2ccn(CC3CCNCC3)c(=O)c2c1 [Compound I-2, N-hydroxy-1-oxo-2-(piperidin-4-ylmethyl)-1,2-dihydroisoquinoline-7-carboxamide]	82.2
O=C(NO)c1ccc2ccn(CCCOc3ccc(OCc4ccccc4)cc3)c(=O)c2c1 [Compound I-116, 2-{3-[4-(benzyloxy)phenoxy]propyl}-N-hydroxy-1-oxo-1,2-dihydroisoquinoline-7-carboxamide]	80.2
COc1ccc(CCn2ccc3ccc(C(=O)NO)cc3c2=O)cc1 [Compound I-285, N-hydroxy-2-[2-(4-methoxyphenyl)ethyl]-1-oxo-1,2-dihydroisoquinoline-7-carboxamide]	95.3
O=C(NO)c1ccc2ccn(CCCOc3ccccc3C(F)(F)F)c(=O)c2c1 [Compound I-52, N-hydroxy-1-oxo-2-{3-[2-(trifluoromethyl)phenoxy]propyl}-1,2-dihydroisoquinoline-7-carboxamide]	90
Cc1ccc(OCc2nc3cc(C(=O)NO)ccc3c(=O)[nH]2)cc1 [Compound I-265, N-hydroxy-2-[(4-methylphenoxy)methyl]-4-oxo-3,4-dihydroquinazoline-7-carboxamide]	81.3
O=C(NO)c1ccc2c(=O)n(CCc3ccccn3)c(-c3ccccc3)nc2c1 [Compound I-263, N-hydroxy-4-oxo-2-phenyl-3-(2-pyridin-2-ylethyl)-3,4-dihydroquinazoline-7-carboxamide]	91.1
Cn1ccc2ccc(C(=O)NO)cc2c1=O [Compound I-287, N-hydroxy-2-methyl-1-oxo-1,2-dihydroisoquinoline-7-carboxamide]	67.6
Cc1cccc(Cn2ccc3ccc(C(=O)NO)cc3c2=O)c1 [Compound I-120, N-hydroxy-2-(3-methylbenzyl)-1-oxo-1,2-dihydroisoquinoline-7-carboxamide]	94.8
O=C(NO)c1ccc2ncn(Cc3ccc(C(F)(F)F)cc3C(F)(F)F)c(=O)c2c1 [Compound I-147, 3-[2,4-bis(trifluoromethyl)benzyl]-N-hydroxy-4-oxo-3,4-dihydroquinazoline-6-carboxamide]	93.2
CS(=O)(=O)c1ccccc1OCCn1ccc2ccc(C(=O)NO)cc2c1=O [Compound I-167, N-hydroxy-2-{2-[2-(methylsulfonyl)phenoxy]ethyl}-1-oxo-1,2-dihydroisoquinoline-7-carboxamide]	96.1
Cn1c(NCc2ccc(Cl)cc2)nc2cc(C(=O)NO)ccc2c1=O [Compound I-139, 2-[(4-chlorobenzyl)amino]-N-hydroxy-3-methyl-4-oxo-3,4-dihydroquinazoline-7-carboxamide]	78.5
O=C(NO)c1ccc2c(=O)n(-c3ccc(Cl)cc3)c(=O)[nH]c2c1 [Compound I-280, 3-(4-chlorophenyl)-N-hydroxy-2,4-dioxo-1,2,3,4-tetrahydroquinazoline-7-carboxamide]	20.9
O=C(NO)c1ccc2ccn(CCOc3ccc(OCc4ccccc4)cc3)c(=O)c2c1 [Compound I-270, 2-{2-[4-(benzyloxy)phenoxy]ethyl}-N-hydroxy-1-oxo-1,2-dihydroisoquinoline-7-carboxamide]	83.4
O=C(NO)c1ccc2ncn(Cc3cccc(Cl)c3)c(=O)c2c1 [Compound I-127, 3-(3-chlorobenzyl)-N-hydroxy-4-oxo-3,4-dihydroquinazoline-6-carboxamide]	96.1
COc1ccc(-n2ccc3ccc(C(=O)NO)cc3c2=O)cc1 [Compound I-221, N-hydroxy-2-(4-methoxyphenyl)-1-oxo-1,2-dihydroisoquinoline-7-carboxamide]	88.1
O=C(NO)c1ccc2c(=O)[nH]c(COc3ccc(-n4ccnc4)cc3)nc2c1 [Compound I-210, N-hydroxy-2-{[4-(1H-imidazol-1-yl)phenoxy]methyl}-4-oxo-3,4-dihydroquinazoline-7-carboxamide]	80.7
Cn1cnc2ccc(C(=O)NO)cc2c1=O [Compound I-156, N-hydroxy-3-methyl-4-oxo-3,4-dihydroquinazoline-6-carboxamide]	55.7
O=C(NO)c1ccc2ccn(Cc3ccc(OC(F)(F)F)cc3)c(=O)c2c1 [Compound I-190, N-hydroxy-1-oxo-2-[4-(trifluoromethoxy)benzyl]-1,2-dihydroisoquinoline-7-carboxamide]	92.9
O=C(NO)c1ccc2ccn(CCOc3ccc(C45CC6CC(CC(C6)C4)C5)cc3)c(=O)c2c1 [Compound I-161, 2-(2-{4-[1-adamantyl]phenoxy}ethyl)-N-hydroxy-1-oxo-1,2-dihydroisoquinoline-7-carboxamide]	67
COc1ccc(OCCn2ccc3ccc(C(=O)NO)cc3c2=O)cc1 [Compound I-257, N-hydroxy-2-[2-(4-methoxyphenoxy)ethyl]-1-oxo-1,2-dihydroisoquinoline-7-carboxamide]	96.8
